Measured values published in patent US11572564B2, “Microorganisms for producing 1,4-butanediol and methods related thereto” (priority 2011, dated 2023).

What was measured:
[1] = 20° C. and 1 atm; cited from earlier work
E. coli = E. coli CO tolerance experiment (anaerobic growth with saturating CO); format: cell-based; conditions: levels achievable at normal atmospheric pressure
Experimental: To test whether or not E. coli can grow anaerobically in the presence of saturating amounts of CO, cultures were set up in 120 ml serum bottles with 50 ml of Terrific Broth medium (plus reducing solution, NiCl2, Fe(II)NH4SO4, cyanocobalamin, IPTG, and chloramphenicol) as described above for anaerobic microbiology in small volumes. One half of these bottles were equilibrated with nitrogen gas for 30 min. and one half was equilibrated with CO gas for 30 min. An empty vector (pZA33) was used as a control, and cultures containing the pZA33 empty vector as well as both ACS90 and ACS91 were tested with both N2 and CO. All were inoculated and grown for 36 hrs with shaking (250 rpm) at 37° C. […] The bulk of the observed growth occurred overnight with a long lag.

For `[C-]#[O+]` [CO], the maximum water solubility [1] is given as 970 µM and the “sensitivity of laboratory strains of E. coli to CO” value (E. coli) is given as “insensitive”.
